Patent US20110015371A1 (Vertex Pharmaceuticals Incorporated, priority 1994, published 2011)
Where a name gives a salt, the structure may show the parent alone. Non-standard residues stand in square brackets, D forms with d. Residues, ends and D or L forms follow the SMILES beside them. *: point of attachment. Pro(4R-OPh) = O=C(O)[C@@H]1C[C@@H](Oc2ccccc2)CN1; Hyp = O=C(O)[C@@H]1C[C@@H](O)CN1; Bn = c1ccc(C*)cc1; Allyl = C=CC*

Test system: Human Peripheral Blood Mononuclear Cells (PBMC) or Enriched Adherent Mononuclear Cells
Assay: Cell assay: IL-1β assay with human PBMC or enriched adherent mononuclear cells
Type: cell-based
Conditions: LPS-stimulated cells, mature IL-1β in supernatant by ELISA
From the text: IL-1β Assay with a Mixed Population of Human Peripheral Blood Mononuclear Cells (PBMC) or Enriched Adherent Mononuclear Cells
Processing of pre-IL-1S by ICE can be measured in cell culture using a variety of cell sources. Human PBMC obtained from healthy donors provides a mixed population of lymphocyte subtypes and mononuclear cells that produce a spectrum of interleukins and cytokines in response to many classes of physiological stimulators. Adherent mononuclear cells from PBMC provides an enriched source of normal monocytes for selective studies of cytokine production by activated cells.
An initial dilution series of test compound in DMSO or ethanol is prepared, with a subsequent dilution into RPMI-10% FBS media (containing 2 mM L-glutamine, 10 mM HEPES, 50 U and 50 ug/ml pen/strep) respectively to yield drugs at 4× the final test concentration containing 0.4% DMSO or 0.4% ethanol. The final concentration of DMSO is 0.1% for all drug dilutions. A concentration titration which brackets the apparent Ki for a test compound determined in an ICE inhibition assay is generally used for the primary compound screen.
We generally test 5-6 compound dilutions and have performed the cellular component of the assay in duplicate, with duplicate ELISA determinations on each cell culture supernatant.
Buffy coat cells isolated from one pint human blood (yielding 40-45 ml final volume plasma plus cells) are diluted with media to 80 ml and LeukoPREP separation tubes (Becton Dickinson) are each overlaid with 10 ml of cell suspension. After 15 min centrifugation at 1500-1800×g, the plasma/media layer is aspirated and then the mononuclear cell layer is collected with a Pasteur pipette and transferred to a 15 ml conical centrifuge tube (Corning). Media is added to bring the volume to 15 ml, gently mix the cells by inversion and centrifuge at 300×g for 15 min. Resuspend the PBMC pellet in a small volume of media, count cells and adjust to 6×10^6 cells/ml.
For the cellular assay, add 1.0 ml of the cell suspension to each well of a 24-well flat bottom tissue culture plate (Corning), 0.5 ml test compound dilution and 0.5 ml LPS solution (Sigma #L-3012; 20 ng/ml solution prepared in complete RPMI media; final LPS concentration 5 ng/ml). The 0.5 ml additions of test compound and LPS are usually sufficient to mix the contents of the wells. Three control mixtures are run per experiment, with either LPS alone, solvent vehicle control, and/or additional media to adjust the final culture volume to 2.0 ml. The cell cultures are incubated for 16-18 hr at 37° C. in the presence of 5% CO2.
At the end of the incubation period, cells are harvested and transferred to 15 ml conical centrifuge tubes. After centrifugation for 10 min at 200×g, supernatants are harvested and transferred to 1.5 ml Eppendorf tubes. It may be noted that the cell pellet may be utilized for a biochemical evaluation of pre-IL-1S and/or mature IL-1β content in cytosol extracts by western blotting or ELISA with pre-IL-1β specific antisera.
PBMC are isolated and prepared as described above. Media (1.0 ml) is first added to wells followed by 0.5 ml of the PBMC suspension. After a one hour incubation, plates are gently shaken and nonadherent cells aspirated from each well. Wells are then gently washed three times with 1.0 ml of media and final resuspended in 1.0 ml media. The enrichment for adherent cells generally yields 2.5−3.0×10^5 cells per well. The addition of test compounds, LPS, cell incubation conditions and processing of supernatants proceeds as described above.
We have used Quantikine kits (R&D Systems) for measurement of mature IL-1β. Assays are performed according to the manufacturer's directions. Mature IL-1β levels of about 1-3 ng/ml in both PBMC and adherent mononuclear cell positive controls are observed. ELISA assays are performed on 1:5, 1:10 and 1:20 dilutions of supernatants from LPS-positive controls to select the optimal dilution for supernatants in the test panel.

[1] = Homo sapiens, PBMC, Example 4 table
[2] = Homo sapiens, PBMC, Example 6 table
[3] = Homo sapiens, PBMC, Example 2 table

CC(C)[C@H](NC(=O)OCc1ccccc1)C(=O)N[C@@H](C)C(=O)N[C@H](CC(=O)O)C(=O)COCc1c(Cl)cccc1Cl (mixture of isomers) [Compound 84a, (R,S)N-[N-(Phenylmethyloxy)carbonyl-valinyl-alaninyl]-3-amino-5-(2,6-dichlorophenylmethyloxy)-4-oxo-pentanoic acid]
IC50 [1]: 3.3 µM

CC(C(=O)N[C@H](C=O)CC(=O)O)N1CCN(Cc2ccccc2)C[C@H](NC(=O)OCc2ccccc2)C1=O (mixture of isomers) [Compound 114a, 3(S)-{2(R,S)-[4-Benzyl-7-oxo-6(S)-(N-benzyloxycarbonylamino)-[1,4]diazepan-1-yl]-propionylamino}-4-oxo-butyric acid trifluoroacetic acid salt]
IC50 [2]: 3.8 µM

CC(C(=O)N[C@H](C=O)CC(=O)O)N1CCN(C(=O)CCc2ccccc2)C[C@H](NC(=O)CCc2ccccc2)C1=O (mixture of isomers) [Compound 115, 4-Oxo-3(S)-{2(R,S)-[7-oxo-4-(3-phenyl-propionyl)-6(S)-(3-phenyl-propionylamino)-[1,4]diazepan-1-yl]-propionylamino}-butyric acid]
IC50 [2]: 6 µM

C[C@H](NC(=O)c1nc(CCCc2ccccc2)c[nH]1)C(=O)N[C@H](C=O)CC(=O)O [Compound 20d, (3S)3-{N-[4-(3-Phenylpropyl)imidazole-2-carbonyl]-L-alaninyl}amino-4-oxo-butanoic acid]
IC50 [1]: 6.2 µM

COc1ccc(CCCc2cnc(C(=O)N3C[C@H](Oc4ccccc4)C[C@H]3C(=O)N[C@H](C=O)CC(=O)O)[nH]2)cc1 [Compound 22e, 3(S)-[(1-{5-[3-(4-Methoxyphenyl)propyl]-1H-imidazole-2-carbonyl}-4(R)-phenoxypyrrolidine-2(S)-carbonyl)amino]-4-oxobutanoic acid]
IC50 [2]: > 20 µM

C[C@H](NC(=O)c1cnc(CCc2ccccc2)[nH]1)C(=O)N[C@H](C=O)CC(=O)O [Compound 33a, (3S)3-{N-[2-(2-Phenylethyl)imidazole-4-carbonyl]-L-alaninyl}amino-4-oxobutanoic acid]
IC50 [3]: 25 µM
IC50 [1]: 25 µM

C[C@H](NC(=O)c1cnc(Cc2ccccc2)[nH]1)C(=O)N[C@H](C=O)CC(=O)O [Compound 33c, (3S)3-[N-(2-Benzylimidazole-4-carbonyl)-L-alaninyl]amino-4-oxobutanoic acid]
IC50 [3]: 20 µM
IC50 [1]: 20 µM

C[C@@H](C(=O)N[C@H](C=O)CC(=O)O)n1cccc(NC(=O)CCc2ccccc2)c1=O [Compound 54a]
IC50 (Example 2 table): 2 to 4 µM
IC50 [1]: 2.7 µM

O=C[C@H](CC(=O)O)NC(=O)Cn1c(Cc2ccccc2)ccc(NC(=O)CCc2ccccc2)c1=O [Compound 54b, 3(S)3-(6-Benzyl-1,2-dihydro-2-oxo-3-(3-phenylpropionyl)amino-1-pyridyl)acetylamino-4-oxobutanoic acid]
IC50 [1]: 9.1 µM
IC50 [2]: 20 µM

C=CCO[C@@H]1C[C@@H](C(=O)N[C@H](C=O)CC(=O)O)N(C(=O)[C@@H](NC(=O)[C@H](Cc2ccc(O)cc2)NC(C)=O)C(C)C)C1 [Compound 85, N-(N-Acetyl-tyrosinyl-valinyl-(4(R)-allyloxyprolinyl))-3(S)-amino-4-oxobutanoic acid] (Ac-YV[Hyp](Allyl)D-aldehyde)
IC50 [2]: 9.8 µM

O=C(O)C[C@H](NC(=O)[C@@H]1CCc2ncc(NC(=O)CCc3ccccc3)c(=O)n21)C(=O)COC(=O)c1c(Cl)cccc1Cl [Compound 102a, 2,6-Dichloro-benzoic acid 4-carboxy-2-oxo-(3S)-{[4-oxo-3-(3-phenyl-propionylamino)-4,6,7,8-tetrahydro-pyrrolo[1,2-a]pyrimidine-(6S)-carbonyl]-amino}-butyl ester]
IC50 [2]: 4 µM

C[C@H](NC(=O)CN1C(=O)[C@@H](NC(=O)CCc2ccccc2)CN(C(=O)CCc2ccccc2)c2ccccc21)C(=O)C(=O)O [Compound 106b, 2-Oxo-3(S)-{2-[2-oxo-5-(3-phenylpropionyl)-3(S)-(3-phenyl-propionyl-amino)-2,3,4,5-tetrahydrobenzo[b][1,4]diazepin-1-yl]acetylamino}butyric acid]
IC50 [2]: 2.9 µM

O=C(O)C[C@H](NC(=O)CN1C(=O)[C@@H](NC(=O)CCc2ccccc2)CN(C(=O)CCc2ccccc2)c2ccccc21)C(=O)COC(=O)c1c(Cl)cccc1Cl [Compound 108a, 2,6-Dichlorobenzoic acid 4-carboxy-2-oxo-3(S)-{2-[2-oxo-5-(3-phenylpropionyl)-3(S)-(3-phenylpropionylamino)-2,3,4,5-tetrahydrobenzo[b][1,4]diazepin-1-yl]acetylamino}butyl ester]
IC50 [2]: 17.5 µM

C[C@@H](C(=O)N[C@@H](CC(=O)O)C(=O)COC(=O)c1c(Cl)cccc1Cl)n1cccc(NC(=O)CCc2ccccc2)c1=O [Compound 130]
IC50 [2]: 1.2 µM

O=C(O)C[C@H](NC(=O)[C@@H]1CCCN2C(=O)CC[C@H](NC(=O)CCc3ccccc3)C(=O)N12)C(=O)COC(=O)c1c(Cl)cccc1Cl [Compound 136]
IC50 [2]: 1 µM

CS(=O)(=O)N[C@H]1CCC(=O)N2CCC[C@@H](C(=O)N[C@@H](CC(=O)O)C(=O)COC(=O)c3c(Cl)cccc3Cl)N2C1=O [Compound 138]
IC50 [2]: 0.375 µM

C[C@H](NC(=O)c1ncc[nH]1)C(=O)N[C@@H](CC(=O)O)C(=O)COC(=O)c1c(Cl)cccc1Cl [Compound 142]
IC50 [2]: 1.75 µM

CC(=O)N[C@@H](Cc1ccc(O)cc1)C(=O)N[C@H](C(=O)N1C[C@H](OCc2ccccc2)C[C@H]1C(=O)N[C@H](C=O)CC(=O)O)C(C)C [Compound K, N-[N-Acetyl-tyrosinyl-valinyl-(4-benzyloxy)prolinyl]-3-amino-4-oxobutanoic acid] (Ac-YV[Hyp](Bn)D-aldehyde)
IC50 [3]: 2 to 11 µM

CC(=O)N[C@@H](Cc1ccc(O)cc1)C(=O)N[C@H](C(=O)N1C[C@H](Oc2ccccc2)C[C@H]1C(=O)N[C@H](C=O)CC(=O)O)C(C)C [I, N-(N-Acetyl-tyrosinyl-valinyl-(4-phenoxyprolinyl))-3-amino-4-oxobutanoic acid] (Ac-YV[Pro(4R-OPh)]D-aldehyde)
IC50 [3]: 2.6 µM

CC(=O)N[C@@H](Cc1ccc(O)cc1)C(=O)N[C@H](C(=O)N1C[C@H](O)C[C@H]1C(=O)N[C@H](C=O)CC(=O)O)C(C)C [J, N-[N-Acetyl-tyrosinyl-valinyl-(4-hydroxyprolinyl)]-3-amino-4-oxobutanoic acid] (Ac-YV[Hyp]D-aldehyde)
IC50 [3]: 5 to 7 µM
